Measured values: patent publication US11806342B2, “Diiodohydroxyquinoline for the treatment of clostridium difficile infection” (Purdue Research Foundation, priority 2019, dated 2023)
Values after ≈ are worked out from the molar mass of the structure shown.

Assays:
C. difficile P8 = test: MIC and MBC, broth microdilution; type: cell-based, Clostridium difficile; conditions: Clostridioides difficile, C. difficile P8
Description: (§1) MIC50 and MIC90 are the minimum concentration of each agent that inhibited growth of 50% and 90% of the tested isolates, respectively. The minimum bactericidal concentration (MBC) of these drugs was tested by plating 5 μL from wells with no growth onto BHIS agar plates. The MBC was categorized as the lowest concentration that reduced bacterial growth by 99.9% MIC50 and MIC90 are the minimum concentration of each agent that inhibited the growth of 50% and 90% of the tested isolates, respectively. The minimum bactericidal concentration (MBC) of these drugs was tested by plating 5 μL from wells with no growth onto BHIS agar plates. The MBC was categorized as the lowest concentration that reduced bacterial growth by 99.9% [29-31].

C. difficile I2 = test: MIC and MBC, broth microdilution; type: cell-based, Clostridium difficile; conditions: Clostridioides difficile, C. difficile I2
Description: as §1

C. difficile NR-49290 = test: MIC and MBC, broth microdilution; type: cell-based, Clostridium difficile; conditions: Clostridioides difficile, NR49290, C. difficile NR-49290
Description: as §1

C. difficile P2 = test: MIC and MBC, broth microdilution; type: cell-based, Clostridium difficile; conditions: Clostridioides difficile, C. difficile P2
Description: as §1

C. difficile P24 = test: MIC and MBC, broth microdilution; type: cell-based, Clostridium difficile; conditions: Clostridioides difficile, C. difficile P24
Description: as §1

C. difficile NR-49277 = test: MIC and MBC, broth microdilution; type: cell-based, Clostridium difficile; conditions: Clostridioides difficile, NR49277, C. difficile NR-49277
Description: as §1

C. difficile HM-89 = test: MIC and MBC, broth microdilution; type: cell-based, Clostridium difficile; conditions: Clostridioides difficile, HM89, C. difficile HM-89
Description: as §1

C. difficile ATCC 9689 = test: MIC and MBC, broth microdilution; type: cell-based, Clostridium difficile; conditions: Clostridioides difficile, ATCC9689, C. difficile ATCC 9689
Description: as §1

C. difficile P13 = test: MIC and MBC, broth microdilution; type: cell-based, Clostridium difficile; conditions: Clostridioides difficile, C. difficile P13
Description: as §1

C. difficile NR-49286 = test: MIC and MBC, broth microdilution; type: cell-based, Clostridium difficile; conditions: Clostridioides difficile, NR49286, C. difficile NR-49286
Description: as §1

C. difficile P11 = test: MIC and MBC, broth microdilution; type: cell-based, Clostridium difficile; conditions: Clostridioides difficile, C. difficile P11
Description: as §1

C. difficile I1 = test: MIC and MBC, broth microdilution; type: cell-based, Clostridium difficile; conditions: Clostridioides difficile, C. difficile I1
Description: as §1

C. difficile NR-49284 = test: MIC and MBC, broth microdilution; type: cell-based, Clostridium difficile; conditions: Clostridioides difficile, NR49284, C. difficile NR-49284
Description: as §1

C. difficile ATCC 700057 = test: MIC and MBC, broth microdilution; type: cell-based, Clostridium difficile; conditions: Clostridioides difficile, ATCC700057, C. difficile ATCC 700057
Description: as §1

C. difficile NR-49281 = test: MIC and MBC, broth microdilution; type: cell-based, Clostridium difficile; conditions: Clostridioides difficile, NR49281, C. difficile NR-49281
Description: as §1

[1] = system: C. difficile ATCC BAA-1870; test: MIC and MBC, broth microdilution; type: cell-based, Clostridium difficile; conditions: Clostridioides difficile, ATCCBAA1870, C. difficile ATCC BAA-1870
Description: as §1

C. difficile ATCC 43598 = test: MIC and MBC, broth microdilution; type: cell-based, Clostridium difficile; conditions: Clostridioides difficile, ATCC43598, C. difficile ATCC 43598
Description: as §1

C. difficile I4 = test: MIC and MBC, broth microdilution; type: cell-based, Clostridium difficile; conditions: Clostridioides difficile, C. difficile I4
Description: as §1

C. difficile P1 = test: MIC and MBC, broth microdilution; type: cell-based, Clostridium difficile; conditions: Clostridioides difficile, C. difficile P1
Description: as §1

C. difficile P7 = test: MIC and MBC, broth microdilution; type: cell-based, Clostridium difficile; conditions: Clostridioides difficile, C. difficile P7
Description: as §1

[2] = system: Bifidobacterium adolescentis HM-633; test: MIC against normal gut microflora, broth microdilution; type: cell-based; conditions: HM633; Bifidobacterium adolescentis HM-633; read-out: MIC
Description: (§2) In vitro antimicrobial evaluation of diiodohydroxyquinoline against normal microflora. The broth microdilution assay was utilized to determine the MICs of DIHQ and control antibiotics against commensal organisms that compose he human gut microflora, as described elsewhere. A bacterial solution equivalent to 0.5 McFarland standard was prepared and diluted in BHIS broth (for Bifidobacterium and Bacteroides) or in MRS broth (for Lactobacillus) to achieve a bacterial concentration of about 5×10^5 CFU/mL. Then, drugs were added and serially diluted along the plates.

Bacteroides dorei HM-717 = test: as above; type: cell-based; conditions: Phocaeicola dorei, HM717; Bacteroides dorei HM-717; read-out: MIC
Description: as §2

[3] = system: Bifidobacterium breve HM-1120; test: as above; type: cell-based; conditions: HM1120; Bifidobacterium breve HM-1120; read-out: MIC
Description: as §2

[4] = system: Bacteroides fragilis HM-711; test: as above; type: cell-based; conditions: HM711; Bacteroides fragilis HM-711; read-out: MIC
Description: as §2

[5] = system: Bacteroides fragilis HM-709; test: as above; type: cell-based; conditions: HM709; Bacteroides fragilis HM-709; read-out: MIC
Description: as §2

[6] = system: Bacteroides fragilis HM-710; test: as above; type: cell-based; conditions: HM710; Bacteroides fragilis HM-710; read-out: MIC
Description: as §2

Bacteroides dorei HM-29 = test: as above; type: cell-based; conditions: Phocaeicola dorei, HM29; Bacteroides dorei HM-29; read-out: MIC
Description: as §2

[7] = system: Bacteroides fragilis HM-714; test: as above; type: cell-based; conditions: HM714; Bacteroides fragilis HM-714; read-out: MIC
Description: as §2

Bacteroides dorei HM-718 = test: as above; type: cell-based; conditions: Phocaeicola dorei, HM718; Bacteroides dorei HM-718; read-out: MIC
Description: as §2

[8] = system: Bifidobacterium longum HM-845; test: as above; type: cell-based; conditions: HM845; Bifidobacterium longum HM-845; read-out: MIC
Description: as §2

## Oc1c(I)cc(I)c2cccnc12 [DIHQ, 5,7-diiodoquinolin-8-ol]
C. difficile P8; read-out: MBC
  MBC: 0.125 µg/mL (≈ 0.315 µM)
C. difficile P8; read-out: MIC
  MIC: 0.125 µg/mL (≈ 0.315 µM)
C. difficile I2; read-out: MBC
  MBC: 2 µg/mL (≈ 5.04 µM)
C. difficile I2; read-out: MIC
  MIC: 2 µg/mL (≈ 5.04 µM)
C. difficile NR-49290; read-out: MBC
  MBC: 0.5 µg/mL (≈ 1.26 µM)
C. difficile NR-49290; read-out: MIC
  MIC: 0.25 µg/mL (≈ 0.63 µM)
C. difficile P2; read-out: MBC
  MBC: 0.25 µg/mL (≈ 0.63 µM)
C. difficile P2; read-out: MIC
  MIC: 0.25 µg/mL (≈ 0.63 µM)
C. difficile P24; read-out: MBC
  MBC: 2 µg/mL (≈ 5.04 µM)
C. difficile P24; read-out: MIC
  MIC: 1 µg/mL (≈ 2.52 µM)
C. difficile NR-49277; read-out: MBC
  MBC: 0.5 µg/mL (≈ 1.26 µM)
C. difficile NR-49277; read-out: MIC
  MIC: 0.5 µg/mL (≈ 1.26 µM)
C. difficile HM-89; read-out: MBC
  MBC: 1 µg/mL (≈ 2.52 µM)
C. difficile HM-89; read-out: MIC
  MIC: 1 µg/mL (≈ 2.52 µM)
C. difficile ATCC 9689; read-out: MBC
  MBC: 0.25 µg/mL (≈ 0.63 µM)
C. difficile ATCC 9689; read-out: MIC
  MIC: 0.125 µg/mL (≈ 0.315 µM)
C. difficile P13; read-out: MBC
  MBC: 0.5 µg/mL (≈ 1.26 µM)
C. difficile P13; read-out: MIC
  MIC: 0.5 µg/mL (≈ 1.26 µM)
C. difficile NR-49286; read-out: MBC
  MBC: 0.5 µg/mL (≈ 1.26 µM)
C. difficile NR-49286; read-out: MIC
  MIC: 0.25 µg/mL (≈ 0.63 µM)
C. difficile P11; read-out: MBC
  MBC: 0.25 µg/mL (≈ 0.63 µM)
C. difficile P11; read-out: MIC
  MIC: 0.25 µg/mL (≈ 0.63 µM)
C. difficile I1; read-out: MBC
  MBC: 1 µg/mL (≈ 2.52 µM)
C. difficile I1; read-out: MIC
  MIC: 1 µg/mL (≈ 2.52 µM)
C. difficile NR-49284; read-out: MBC
  MBC: 0.125 µg/mL (≈ 0.315 µM)
C. difficile NR-49284; read-out: MIC
  MIC: 0.125 µg/mL (≈ 0.315 µM)
C. difficile ATCC 700057; read-out: MBC
  MBC: 0.5 µg/mL (≈ 1.26 µM)
C. difficile ATCC 700057; read-out: MIC
  MIC: 0.5 µg/mL (≈ 1.26 µM)
C. difficile NR-49281; read-out: MBC
  MBC: 0.25 µg/mL (≈ 0.63 µM)
C. difficile NR-49281; read-out: MIC
  MIC: 0.25 µg/mL (≈ 0.63 µM)
[1]; read-out: MBC
  MBC: 1 µg/mL (≈ 2.52 µM)
[1]; read-out: MIC
  MIC: 1 µg/mL (≈ 2.52 µM)
C. difficile ATCC 43598; read-out: MBC
  MBC: 1 µg/mL (≈ 2.52 µM)
C. difficile ATCC 43598; read-out: MIC
  MIC: 1 µg/mL (≈ 2.52 µM)
C. difficile I4; read-out: MBC
  MBC: 1 µg/mL (≈ 2.52 µM)
C. difficile I4; read-out: MIC
  MIC: 1 µg/mL (≈ 2.52 µM)
C. difficile P1; read-out: MBC
  MBC: 0.5 µg/mL (≈ 1.26 µM)
C. difficile P1; read-out: MIC
  MIC: 0.5 µg/mL (≈ 1.26 µM)
C. difficile P7; read-out: MBC
  MBC: 0.5 µg/mL (≈ 1.26 µM)
C. difficile P7; read-out: MIC
  MIC: 0.5 µg/mL (≈ 1.26 µM)
[2]
  MIC: 128 µg/mL (≈ 322 µM)
Bacteroides dorei HM-717
  MIC: > 128 µg/mL
[3]
  MIC: > 128 µg/mL
[4]
  MIC: > 128 µg/mL
[5]
  MIC: > 128 µg/mL
[6]
  MIC: > 128 µg/mL
Bacteroides dorei HM-29
  MIC: > 128 µg/mL
[7]
  MIC: > 128 µg/mL
Bacteroides dorei HM-718
  MIC: > 128 µg/mL
[8]
  MIC: 64 µg/mL (≈ 161 µM)
